In US10538555B2, “Macrocyclic inhibitors of the PD-1/PD-L1 and CD80(B7-1)/PD-L1 protein/protein interactions” (BRISTOL-MYERS SQUIBB COMPANY, priority 2014, dated 2020):
Where two headings read alike, the source gives them in different places. Where a SMILES comes first, the peptide text is derived from it. Bridges are numbered along the chain shown (N, C = ends). [ ]: non-standard residue; d: D form. ξ: configuration not given here. Trp(1-CH2COOH) = N[C@@H](Cc1cn(CC(=O)O)c2ccccc12)C(=O)O; Hyp = O=C(O)[C@@H]1C[C@@H](O)CN1; NMeAhp(2) = CCCCC[C@H](NC)C(=O)O; NMeNle = CCCC[C@H](NC)C(=O)O; NMeA = CN[C@@H](C)C(=O)O; Dab = NCC[C@H](N)C(=O)O; Dap = NC[C@H](N)C(=O)O; ξP = O=C(O)C1CCCN1

Target: T1, Human PD-L1/PD-1 (Homo sapiens, UniProt Q9NZQ7)
T1 construct: TVMV protease cleavage site (C); made in house; host or cells: HEK293T cells
Test: HTRF Human PD-L1/PD-1 binding assay (PD-1-Ig/PD-L1-His)
Settings: PD-L1-His 10 nM, PD-1-Ig 20 nM
Procedure, shortened: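 HTRF read-out (665/620 nm ratio) after 30 min equilibration with Eu-cryptate anti-Ig mAb (1 nM) and APC anti-His mAb (20 nM). Peptides preincubated 15 min with PD-L1-His (10 nM), then PD-1-Ig (20 nM) added for 15 min.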

[1] = class symbol, read-out: HTRF Human PD-L1/PD-1 Binding Assay IC50 Range

T1 sequence (Q9NZQ7 with tags, fused parts or gaps): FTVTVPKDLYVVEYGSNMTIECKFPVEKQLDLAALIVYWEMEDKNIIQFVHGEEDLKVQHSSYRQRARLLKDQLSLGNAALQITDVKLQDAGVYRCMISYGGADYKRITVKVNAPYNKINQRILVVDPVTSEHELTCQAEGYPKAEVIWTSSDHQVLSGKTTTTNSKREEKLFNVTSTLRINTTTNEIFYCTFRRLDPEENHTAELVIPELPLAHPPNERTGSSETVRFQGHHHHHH

| Compound | IC50 [1] [nM] | IC50 (read-out: HTRF Human PD-L1/PD-1 Binding Assay IC50) [nM] |
| --- | --- | --- |
| CCCC[C@H]1C(=O)N(C)[C@@H](CCCC)C(=O)N[C@@H](CCC(=O)O)C(=O)N[C@H](C(=O)NCC(N)=O)CSCC(=O)N[C@@H](Cc2ccc(O)cc2)C(=O)N(C)[C@@H](C)C(=O)N[C@@H](CC(=O)O)C(=O)N2CCC[C@H]2C(=O)N[C@@H](CN)C(=O)N[C@@H](CCC(N)=O)C(=O)N2C[C@H](O)C[C@H]2C(=O)N[C@@H](Cc2c[nH]c3ccccc23)C(=O)N[C@@H](CO)C(=O)N[C@@H](Cc2cn(CC(=O)O)c3ccccc23)C(=O)N1C [Example 6289] ({CH2CO}-Y[NMeA]DP[Dap]Q[Hyp]WS[Trp(1-CH2COOH)][NMeNle][NMeNle]ECG-NH2; thioether N-14) | 1 to 9.9 | – |
| CCCC[C@H]1C(=O)N(C)[C@@H](CCCC)C(=O)N[C@@H](CCN)C(=O)N[C@H](C(=O)NCC(N)=O)CSCC(=O)N[C@@H](Cc2ccc(O)cc2)C(=O)N(C)[C@@H](C)C(=O)N[C@@H](CC(N)=O)C(=O)N2CCC[C@H]2C(=O)N[C@@H](Cc2cnc[nH]2)C(=O)N[C@@H](CCC(N)=O)C(=O)N2C[C@H](O)C[C@H]2C(=O)N[C@@H](Cc2c[nH]c3ccccc23)C(=O)N[C@@H](CCN)C(=O)N[C@@H](Cc2cn(CC(=O)O)c3ccccc23)C(=O)N1C [Example 6293] ({CH2CO}-Y[NMeA]NPHQ[Hyp]W[Dab][Trp(1-CH2COOH)][NMeNle][NMeNle][Dab]CG-NH2; thioether N-14) | 1 to 9.9 | – |
| CCCC[C@H]1C(=O)N(C)[C@@H](CCCC)C(=O)N[C@@H](CC(C)C)C(=O)N[C@H](C(=O)NCC(N)=O)CSCC(=O)N[C@@H](Cc2ccc(O)cc2)C(=O)N(C)[C@@H](C)C(=O)N[C@@H](CC(N)=O)C(=O)N2CCC[C@H]2C(=O)N[C@@H](CN)C(=O)N[C@@H](CC(C)C)C(=O)N2C[C@H](O)C[C@H]2C(=O)N[C@@H](Cc2c[nH]c3ccccc23)C(=O)N[C@@H](CCCCN)C(=O)N[C@@H](Cc2cn(CC(=O)O)c3ccccc23)C(=O)N1C [Example 6296] ({CH2CO}-Y[NMeA]NP[Dap]L[Hyp]WK[Trp(1-CH2COOH)][NMeNle][NMeNle]LCG-NH2; thioether N-14) | 1 to 9.9 | – |
| CCCC[C@H]1C(=O)N(C)[C@@H](CCCC)C(=O)N[C@@H](CCCCN)C(=O)N[C@H](C(=O)NCC(N)=O)CSCC(=O)N[C@@H](Cc2ccc(O)cc2)C(=O)N(C)[C@@H](C)C(=O)N[C@@H](CC(N)=O)C(=O)N2CCC[C@H]2C(=O)N[C@@H](Cc2cnc[nH]2)C(=O)N[C@@H](CCC(=O)O)C(=O)N2C[C@H](O)C[C@H]2C(=O)N[C@@H](Cc2c[nH]c3ccccc23)C(=O)N[C@@H](CO)C(=O)N[C@@H](Cc2cn(CC(=O)O)c3ccccc23)C(=O)N1C [Example 6297] ({CH2CO}-Y[NMeA]NPHE[Hyp]WS[Trp(1-CH2COOH)][NMeNle][NMeNle]KCG-NH2; thioether N-14) | 1 to 9.9 | – |
| CCCC[C@H]1C(=O)N(C)[C@@H](CCCC)C(=O)N[C@@H](CN)C(=O)N[C@H](C(=O)NCC(N)=O)CSCC(=O)N[C@@H](Cc2ccc(O)cc2)C(=O)N(C)[C@@H](C)C(=O)N[C@@H](CC(N)=O)C(=O)N2CCC[C@H]2C(=O)N[C@@H](CN)C(=O)N[C@@H](CCC(=O)O)C(=O)N2C[C@H](O)C[C@H]2C(=O)N[C@@H](Cc2c[nH]c3ccccc23)C(=O)N[C@@H](CCN)C(=O)N[C@@H](Cc2cn(CC(=O)O)c3ccccc23)C(=O)N1C [Example 6301] ({CH2CO}-Y[NMeA]NP[Dap]E[Hyp]W[Dab][Trp(1-CH2COOH)][NMeNle][NMeNle][Dap]CG-NH2; thioether N-14) | 1 to 9.9 | – |
| CCCC[C@H]1C(=O)N(C)[C@@H](CCCC)C(=O)N[C@@H](CN)C(=O)N[C@H](C(=O)NCC(N)=O)CSCC(=O)N[C@@H](Cc2ccc(O)cc2)C(=O)N(C)[C@@H](C)C(=O)N[C@@H](CC(N)=O)C(=O)N2CCC[C@H]2C(=O)N[C@@H](CN)C(=O)N[C@@H](CC(C)C)C(=O)N2C[C@H](O)C[C@H]2C(=O)N[C@@H](Cc2c[nH]c3ccccc23)C(=O)N[C@@H](CCN)C(=O)N[C@@H](Cc2cn(CC(=O)O)c3ccccc23)C(=O)N1C [Example 6303] ({CH2CO}-Y[NMeA]NP[Dap]L[Hyp]W[Dab][Trp(1-CH2COOH)][NMeNle][NMeNle][Dap]CG-NH2; thioether N-14) | 1 to 9.9 | – |
| CCCC[C@H]1C(=O)N(C)[C@@H](CCCC)C(=O)N[C@@H](CC(C)C)C(=O)N[C@H](C(N)=O)CSCC(=O)N[C@@H](Cc2ccc(O)cc2)C(=O)N(C)[C@@H](C)C(=O)N[C@@H](CC(N)=O)C(=O)N2CCC[C@H]2C(=O)N[C@@H](CN)C(=O)N[C@@H](CC(C)C)C(=O)N2C[C@H](O)C[C@H]2C(=O)N[C@@H](Cc2c[nH]c3ccccc23)C(=O)N[C@@H](CCN)C(=O)N[C@@H](Cc2cn(CC(=O)O)c3ccccc23)C(=O)N1C [Example 6310] ({CH2CO}-Y[NMeA]NP[Dap]L[Hyp]W[Dab][Trp(1-CH2COOH)][NMeNle][NMeNle]LC-NH2; thioether N-14) | 10 to 99.9 | – |
| CCCC[C@H]1C(=O)N(C)[C@@H](CCCC)C(=O)N[C@@H](CCC(=O)O)C(=O)N[C@H](C(=O)NCC(N)=O)CSCC(=O)N[C@@H](Cc2ccc(O)cc2)C(=O)N(C)[C@@H](C)C(=O)N[C@@H](CC(N)=O)C(=O)N2CCC[C@H]2C(=O)N[C@@H](Cc2cnc[nH]2)C(=O)N[C@@H](CCC(N)=O)C(=O)N2C[C@H](O)C[C@H]2C(=O)N[C@@H](Cc2c[nH]c3ccccc23)C(=O)N[C@@H](CCCCN)C(=O)N[C@@H](Cc2cn(CC(=O)O)c3ccccc23)C(=O)N1C [Example 6324] ({CH2CO}-Y[NMeA]NPHQ[Hyp]WK[Trp(1-CH2COOH)][NMeNle][NMeNle]ECG-NH2; thioether N-14) | 1 to 9.9 | – |
| CCCC[C@H]1C(=O)N(C)[C@@H](CCCC)C(=O)N[C@@H](CCN)C(=O)N[C@H](C(=O)NCC(N)=O)CSCC(=O)N[C@@H](Cc2ccc(O)cc2)C(=O)N(C)[C@@H](C)C(=O)N[C@@H](CC(N)=O)C(=O)N2CCC[C@H]2C(=O)N[C@@H](Cc2cnc[nH]2)C(=O)N[C@@H](CCC(=O)O)C(=O)N2C[C@H](O)C[C@H]2C(=O)N[C@@H](Cc2c[nH]c3ccccc23)C(=O)N[C@@H](CCN)C(=O)N[C@@H](Cc2cn(CC(=O)O)c3ccccc23)C(=O)N1C [Example 6331] ({CH2CO}-Y[NMeA]NPHE[Hyp]W[Dab][Trp(1-CH2COOH)][NMeNle][NMeNle][Dab]CG-NH2; thioether N-14) | 1 to 9.9 | – |
| CCCC[C@H]1C(=O)N(C)[C@@H](CCCC)C(=O)N[C@@H](CC(=O)O)C(=O)N[C@H](C(N)=O)CSCC(=O)N[C@@H](Cc2ccc(O)cc2)C(=O)N(C)[C@@H](C)C(=O)N[C@@H](CC(N)=O)C(=O)N2CCC[C@H]2C(=O)N[C@@H](CN)C(=O)N[C@@H](CC(C)C)C(=O)N2C[C@H](O)C[C@H]2C(=O)N[C@@H](Cc2c[nH]c3ccccc23)C(=O)N[C@@H](CO)C(=O)N[C@@H](Cc2cn(CC(=O)O)c3ccccc23)C(=O)N1C [Example 6334] ({CH2CO}-Y[NMeA]NP[Dap]L[Hyp]WS[Trp(1-CH2COOH)][NMeNle][NMeNle]DC-NH2; thioether N-14) | 1 to 9.9 | – |
| CCCC[C@H]1C(=O)N(C)[C@@H](CCCC)C(=O)N[C@@H](CCC(=O)O)C(=O)N[C@H](C(=O)NCC(N)=O)CSCC(=O)N[C@@H](Cc2ccc(O)cc2)C(=O)N(C)[C@@H](C)C(=O)N[C@@H](CC(=O)O)C(=O)N2CCC[C@H]2C(=O)N[C@@H](Cc2cnc[nH]2)C(=O)N[C@@H](CCC(N)=O)C(=O)N2C[C@H](O)C[C@H]2C(=O)N[C@@H](Cc2c[nH]c3ccccc23)C(=O)N[C@@H](CO)C(=O)N[C@@H](Cc2cn(CC(=O)O)c3ccccc23)C(=O)N1C [Example 6335] ({CH2CO}-Y[NMeA]DPHQ[Hyp]WS[Trp(1-CH2COOH)][NMeNle][NMeNle]ECG-NH2; thioether N-14) | 1 to 9.9 | – |
| CCCC[C@H]1C(=O)N(C)[C@@H](CCCC)C(=O)N[C@@H](CCCNC(=N)N)C(=O)N[C@H](C(=O)NCC(N)=O)CSCC(=O)N[C@@H](Cc2ccc(O)cc2)C(=O)N(C)[C@@H](C)C(=O)N[C@@H](CC(N)=O)C(=O)N2CCC[C@H]2C(=O)N[C@@H](Cc2cnc[nH]2)C(=O)N[C@@H](CCCCN)C(=O)N2C[C@H](O)C[C@H]2C(=O)N[C@@H](Cc2c[nH]c3ccccc23)C(=O)N[C@@H](CO)C(=O)N[C@@H](Cc2cn(CC(=O)O)c3ccccc23)C(=O)N1C [Example 6338] ({CH2CO}-Y[NMeA]NPHK[Hyp]WS[Trp(1-CH2COOH)][NMeNle][NMeNle]RCG-NH2; thioether N-14) | 10 to 99.9 | – |
| CCCC[C@H]1C(=O)N(C)[C@@H](CCCC)C(=O)N[C@@H](CCC(=O)O)C(=O)N[C@H](C(=O)NCC(N)=O)CSCC(=O)N[C@@H](Cc2ccc(O)cc2)C(=O)N(C)[C@@H](C)C(=O)N[C@@H](CC(N)=O)C(=O)N2CCCC2C(=O)N[C@@H](CN)C(=O)N[C@@H](CC(C)C)C(=O)N2C[C@H](O)C[C@H]2C(=O)N[C@@H](Cc2c[nH]c3ccccc23)C(=O)N[C@@H](CCN)C(=O)N[C@@H](Cc2cn(CC(=O)O)c3ccccc23)C(=O)N1C (some centres unmarked) [Example 6344] ({CH2CO}-Y[NMeA]N[ξP][Dap]L[Hyp]W[Dab][Trp(1-CH2COOH)][NMeNle][NMeNle]ECG-NH2; thioether N-14) | 1 to 9.9 | – |
| CCCCC[C@H]1C(=O)N[C@@H](CC(C)C)C(=O)N[C@H](C(=O)NCC(N)=O)CSCC(=O)N[C@@H](Cc2ccc(O)cc2)C(=O)N(C)[C@@H](C)C(=O)N[C@@H](CC(N)=O)C(=O)N2CCC[C@H]2C(=O)N[C@@H](Cc2cnc[nH]2)C(=O)N[C@@H](CCC(N)=O)C(=O)N2C[C@H](O)C[C@H]2C(=O)N[C@@H](Cc2c[nH]c3ccccc23)C(=O)N[C@@H](CCN)C(=O)N[C@@H](Cc2cn(CC(=O)O)c3ccccc23)C(=O)N(C)[C@@H](CCCC)C(=O)N1C [Example 6415] ({CH2CO}-Y[NMeA]NPHQ[Hyp]W[Dab][Trp(1-CH2COOH)][NMeNle][NMeAhp(2)]LCG-NH2; thioether N-14) | – | 177 |
